According to patent publication US9920069B2, “Compounds for treatment of fluoroquinolone-resistant bacteria” (The Board of Trustees of the University of Illinois, priority 2014, dated 2018):
≈ marks a conversion by molar mass, not a printed value.

Legend:
[1] = test system: S. aureus 29213 (WT GyrA and WT ParC); assay: microbe, parasite or virus in culture; assay type: cell-based; settings: for MIC: Staphylococcus aureus, WT GyrA and WT ParC, read-out: MIC against S. aureus 29213
Experimental: (§1) Susceptibility testing was performed in triplicate using the microdilution broth method as outlined by the Clinical and Laboratory Standards Institute CLSI^52. MH broth was used.

A. baumannii ATCC 19606 = assay: microbe, parasite or virus in culture; assay type: cell-based; settings: Acinetobacter baumannii, ATCC19606, gyrA none, parC none
Experimental: (§2) E. coli MG1655 and the ΔAcrB strain were obtained from Prof. Cari Vanderpool at UIUC.
as §1

P. aeruginosa PAO1 = assay: microbe, parasite or virus in culture; assay type: cell-based; settings: Pseudomonas aeruginosa, gyrA none, parC none
Experimental: as §2, §1

PA1586 = assay: MIC, microdilution broth; assay type: cell-based, P. aeruginosa; settings: Pseudomonas aeruginosa
Experimental: as §2, §1

[2] = test system: MRSA clinical isolate SAU.489; assay: microbe, parasite or virus in culture; assay type: cell-based, S. aureus; settings: Staphylococcus aureus, read-out: MIC
Experimental: as §1

[3] = test system: MRSA clinical isolate SAU.491; assay: microbe, parasite or virus in culture; assay type: cell-based, S. aureus; settings: Staphylococcus aureus, read-out: MIC
Experimental: as §1

[4] = test system: MRSA clinical isolate SAU.492; assay: microbe, parasite or virus in culture; assay type: cell-based, S. aureus; settings: Staphylococcus aureus, read-out: MIC
Experimental: as §1

[5] = test system: MRSA clinical isolate SAU.493; assay: microbe, parasite or virus in culture; assay type: cell-based, S. aureus; settings: Staphylococcus aureus, read-out: MIC
Experimental: as §1

[6] = test system: MRSA clinical isolate SAU.494; assay: microbe, parasite or virus in culture; assay type: cell-based, S. aureus; settings: Staphylococcus aureus, read-out: MIC
Experimental: as §1

[7] = test system: MRSA clinical isolate SAU.495; assay: microbe, parasite or virus in culture; assay type: cell-based, S. aureus; settings: Staphylococcus aureus, read-out: MIC
Experimental: as §1

[8] = test system: MRSA clinical isolate SAU.496; assay: microbe, parasite or virus in culture; assay type: cell-based, S. aureus; settings: Staphylococcus aureus, read-out: MIC
Experimental: as §1

[9] = test system: MRSA clinical isolate SAU.708; assay: microbe, parasite or virus in culture; assay type: cell-based, S. aureus; settings: Staphylococcus aureus, read-out: MIC
Experimental: as §1

[10] = test system: MRSA clinical isolate SAU.709; assay: microbe, parasite or virus in culture; assay type: cell-based, S. aureus; settings: Staphylococcus aureus, read-out: MIC
Experimental: as §1

[11] = test system: MRSA clinical isolate SAU.710; assay: microbe, parasite or virus in culture; assay type: cell-based, S. aureus; settings: Staphylococcus aureus, read-out: MIC
Experimental: as §1

Enterococcus ATCC 19433 = assay: organism not typed; assay type: cell-based, E. faecalis; settings: ATCC 19433, E. faecalis; gyrA WT, parC WT; read-out: MIC
[12] = test system: VRE clinical isolate C21190; assay: organism not typed; assay type: cell-based, E. faecium
Experimental: (§3) QRDR mutations were determined as described in the text using primers (primer sequences can be found in Table 7).
as §1

[13] = test system: VRE clinical isolate C27282; assay: organism not typed; assay type: cell-based, E. faecium
Experimental: as §3, §1

[14] = test system: VRE clinical isolate S226; assay: organism not typed; assay type: cell-based, E. faecium
Experimental: as §3, §1

[15] = test system: VRE clinical isolate S235; assay: organism not typed; assay type: cell-based, E. faecium
Experimental: as §3, §1

VRE clinical isolate S34 = assay: organism not typed; assay type: cell-based, E. faecium
Experimental: as §3, §1

VRE clinical isolate S51 = assay: organism not typed; assay type: cell-based, E. faecium
Experimental: as §3, §1

[16] = test system: VRE clinical isolate U275; assay: organism not typed; assay type: cell-based, E. faecium
Experimental: as §3, §1

[17] = test system: VRE clinical isolate U464; assay: organism not typed; assay type: cell-based, E. faecium
Experimental: as §3, §1

[18] = test system: VRE clinical isolate U503; assay: organism not typed; assay type: cell-based, E. faecium
Experimental: as §3, §1

[19] = test system: VRE clinical isolate U563; assay: organism not typed; assay type: cell-based, E. faecium
Experimental: as §3, §1

VRE clinical isolate U63 = assay: organism not typed; assay type: cell-based, E. faecium
Experimental: as §3, §1

[20] = test system: VRE clinical isolate C28036; assay: microbe, parasite or virus in culture; assay type: cell-based, Ent. Spp.; settings: Enterococcus
Experimental: as §3, §1

MRSA clinical isolates = assay: Panel of MRSA clinical isolates (FIG. 2A); assay type: cell-based, S. aureus; settings: n=21, in words
VRE clinical isolates = assay: Panel of VRE clinical isolates (FIG. 2B); assay type: cell-based, Enterococcus; settings: n=22, in words
WT E. coli DNA gyrase = target: T1, WT E. coli DNA gyrase (Escherichia coli, UniProt P0AES4); assay type: biochemical; settings: in words
T1 construct: His tag (pTrcHisA vector, purified on Ni-NTA); made in house; host or cells: E. coli One Shot BL21 Star (DE3)
T1 sequence (P0AES4 whole entry): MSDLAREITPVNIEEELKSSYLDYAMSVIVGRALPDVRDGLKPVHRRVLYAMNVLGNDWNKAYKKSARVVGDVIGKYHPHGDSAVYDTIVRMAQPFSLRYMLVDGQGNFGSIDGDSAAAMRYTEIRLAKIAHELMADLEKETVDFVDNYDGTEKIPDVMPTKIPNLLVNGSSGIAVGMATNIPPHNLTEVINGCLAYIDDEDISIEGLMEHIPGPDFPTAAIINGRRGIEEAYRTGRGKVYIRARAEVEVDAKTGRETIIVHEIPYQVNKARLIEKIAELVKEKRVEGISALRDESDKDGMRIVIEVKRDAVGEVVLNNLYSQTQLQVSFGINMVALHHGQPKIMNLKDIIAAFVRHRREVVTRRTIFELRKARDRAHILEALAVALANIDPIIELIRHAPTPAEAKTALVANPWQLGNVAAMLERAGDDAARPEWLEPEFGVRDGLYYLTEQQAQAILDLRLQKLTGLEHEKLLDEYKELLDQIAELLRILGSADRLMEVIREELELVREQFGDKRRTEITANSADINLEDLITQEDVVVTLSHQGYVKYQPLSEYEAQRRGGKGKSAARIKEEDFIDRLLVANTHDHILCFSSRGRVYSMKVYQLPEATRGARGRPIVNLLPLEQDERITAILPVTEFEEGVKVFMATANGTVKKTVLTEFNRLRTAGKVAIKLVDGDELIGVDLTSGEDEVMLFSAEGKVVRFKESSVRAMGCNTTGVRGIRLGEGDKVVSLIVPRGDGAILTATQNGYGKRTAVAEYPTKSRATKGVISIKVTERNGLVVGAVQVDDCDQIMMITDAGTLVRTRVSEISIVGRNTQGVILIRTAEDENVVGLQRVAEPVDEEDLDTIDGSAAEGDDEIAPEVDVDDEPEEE

[21] = test system: high level CIP resistant strains of S. aureus ATCC 29213 (S84L GyrA); assay: microbe, parasite or virus in culture; assay type: cell-based; settings: Staphylococcus aureus, ATCC29213
in vivo = settings: female, C57BL/6, mouse, po
Experimental: As a prelude to exploring in vivo efficacy, the toxicity and pharmacokinetic profile of DNM and key derivatives was evaluated.
The animal studies (PK, in vivo toxicity and in vivo efficacy) were carried out in strict accordance with the recommendations in the Guide for the Care and Use of Laboratory Animals of the National Institutes of Health. […] In these studies, 10-12 week old female C57BL/6 mice purchased from Charles River were used. DNM, DNM-2, and DNM-3 were formulated as slurries at 8.3 mg mL^−1 in 25% Cremophor RH40/water (v/v). Before beginning the pharmacokinetic assessment, mice were first tested for their ability to tolerate the DNM, DNM-2, and DNM-3 at 50 mg kg^−1 (p.o.). […] . At specified time points, mice were sacrificed and blood was collected, centrifuged, and the serum was frozen at −80° C. until analysis. The proteins in a 50 μL aliquot of serum were precipitated by the addition of 50 μL of acetonitrile and the sample was centrifuged to remove the proteins. Serum concentrations of DNM, DNM-2, and DNM-3 were determined by HPLC. PK parameters were determined using GraphPad Prism Version 5.00 for Windows.

physchem = settings: organic solvent or mixture, thermodynamic from solid

Compound | MIC [1] [µg/mL] | MIC (A. baumannii ATCC 19606) [µg/mL] | MIC (P. aeruginosa PAO1) [µg/mL] | MIC (PA1586) [µg/mL] | MIC [2] [µg/mL] | MIC [3] [µg/mL] | MIC [4] [µg/mL] | MIC [5] [µg/mL] | MIC [6] [µg/mL] | MIC [7] [µg/mL] | MIC [8] [µg/mL] | MIC [9] [µg/mL] | MIC [10] [µg/mL] | MIC [11] [µg/mL] | MIC (Enterococcus ATCC 19433) [µg/mL] | MIC [12] [µg/mL] | MIC [13] [µg/mL] | MIC [14] [µg/mL] | MIC [15] [µg/mL] | MIC (VRE clinical isolate S34) [µg/mL] | also measured
CCn1c(=O)cc(C)c2cc3c(C)cc(=O)n4c3c(c21)OC4 [DNM-2] | 8 (≈ 27 µM) | > 24 | > 24 | > 24 | 0.125 (≈ 0.422 µM) | 0.125 (≈ 0.422 µM) | 0.125 (≈ 0.422 µM) | 0.125 (≈ 0.422 µM) | 0.125 (≈ 0.422 µM) | 0.125 (≈ 0.422 µM) | 0.125 (≈ 0.422 µM) | 0.125 (≈ 0.422 µM) | 0.125 (≈ 0.422 µM) | 0.063 (≈ 0.213 µM) | 8 (≈ 27 µM) | 8 (≈ 27 µM) | 4 (≈ 13.5 µM) | 0.5 (≈ 1.69 µM) | 0.5 (≈ 1.69 µM) | 1 (≈ 3.37 µM) | MIC (VRE clinical isolate S51): 0.5 µg/mL (≈ 1.69 µM); MIC [16]: 2 µg/mL (≈ 6.75 µM); MIC [17]: 2 µg/mL (≈ 6.75 µM); MIC [18]: 4 µg/mL (≈ 13.5 µM); MIC [19]: 2 µg/mL (≈ 6.75 µM); MIC (VRE clinical isolate U63): 4 µg/mL (≈ 13.5 µM); MIC [20]: 0.5 µg/mL (≈ 1.69 µM); sensitivity of MRSA clinical isolates (MRSA clinical isolates): sensitive; sensitivity of VRE clinical isolates (VRE clinical isolates): sensitive; inhibition of WT DNA gyrase (WT E. coli DNA gyrase): poor inhibitors of WT DNA gyrase; MIC [21]: 0.06 to 0.12 µg/mL (≈ 0.202 to 0.405 µM); MTD (in vivo): > 50 mg/kg; solubility (physchem): 4000 µM (≈ 1190 µg/mL)
Cc1cc(=O)n(C)c2c3c4c(cc12)c(C)cc(=O)n4CO3 [DNM, deoxynybomycin] | > 1 | > 4 | > 4 | > 4 | 0.031 (≈ 0.11 µM) | 0.125 (≈ 0.443 µM) | 0.063 (≈ 0.223 µM) | 0.063 (≈ 0.223 µM) | 0.063 (≈ 0.223 µM) | 0.063 (≈ 0.223 µM) | 0.063 (≈ 0.223 µM) | 0.063 (≈ 0.223 µM) | 0.063 (≈ 0.223 µM) | 0.031 (≈ 0.11 µM) | > 1 | > 1 | > 1 | 0.25 (≈ 0.886 µM) | 0.125 (≈ 0.443 µM) | 1 (≈ 3.54 µM) | activity against FQ-sensitive strain 29213 ([1]; in words): modest activity; MIC (VRE clinical isolate S51): 0.25 µg/mL (≈ 0.886 µM); MIC [16]: 1 µg/mL (≈ 3.54 µM); MIC [17]: 1 µg/mL (≈ 3.54 µM); MIC [18]: > 1 µg/mL; MIC [19]: > 1 µg/mL; MIC (VRE clinical isolate U63): 1 µg/mL (≈ 3.54 µM); MIC [20]: 0.25 µg/mL (≈ 0.886 µM); sensitivity of MRSA clinical isolates (MRSA clinical isolates): sensitive; sensitivity of VRE clinical isolates (VRE clinical isolates): sensitive; inhibition of WT DNA gyrase (WT E. coli DNA gyrase): poor inhibitors of WT DNA gyrase; MIC [21]: 0.03 to 0.06 µg/mL (≈ 0.106 to 0.213 µM); MTD (in vivo): > 50 mg/kg; solubility (physchem): 200 µM (≈ 56.5 µg/mL)
